Test [1] has as its target T1, hNOP receptor (Homo sapiens, UniProt P41146). The test is classed as cell-based.
The target in test [2] is T1, hNOP receptor. The test is classed as cell-based. The source holds these as a separate data set.
For test [3], the system named is NOP receptor. As to conditions: cited from earlier work.
For test [4], the target named is T2, NOP receptor (Mus musculus, UniProt P35377). The test is classed as cell-based.
Test [5] concerns the target T2, NOP receptor. In words: In vivo NOP receptor phosphorylation in brain of NOP-eGFP knock-in mice. Particulars: SB 612111 30 mg/kg pretreatment 30 min, then AT-202 30 mg/kg.

T1 sequence (P41146 whole entry): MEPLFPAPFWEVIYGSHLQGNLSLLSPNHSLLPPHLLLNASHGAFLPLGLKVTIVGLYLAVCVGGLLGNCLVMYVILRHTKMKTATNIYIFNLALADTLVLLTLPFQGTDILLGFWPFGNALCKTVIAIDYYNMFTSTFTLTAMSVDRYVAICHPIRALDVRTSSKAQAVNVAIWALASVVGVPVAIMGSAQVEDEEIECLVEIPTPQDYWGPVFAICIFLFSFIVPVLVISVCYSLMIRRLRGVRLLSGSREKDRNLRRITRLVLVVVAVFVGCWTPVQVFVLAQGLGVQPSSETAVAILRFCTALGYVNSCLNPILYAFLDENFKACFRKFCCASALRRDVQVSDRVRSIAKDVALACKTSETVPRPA
T2 sequence (P35377 whole entry): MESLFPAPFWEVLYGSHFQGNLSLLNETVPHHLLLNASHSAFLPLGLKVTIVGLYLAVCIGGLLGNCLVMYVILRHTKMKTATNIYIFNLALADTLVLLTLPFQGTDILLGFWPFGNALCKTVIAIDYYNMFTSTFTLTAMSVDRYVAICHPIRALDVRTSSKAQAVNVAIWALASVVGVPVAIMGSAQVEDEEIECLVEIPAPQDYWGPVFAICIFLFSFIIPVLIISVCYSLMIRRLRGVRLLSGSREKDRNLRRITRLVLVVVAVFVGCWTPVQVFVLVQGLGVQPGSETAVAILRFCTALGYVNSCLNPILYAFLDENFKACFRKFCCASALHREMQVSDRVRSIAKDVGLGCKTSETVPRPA

With `CN1CCc2cc(Cl)c(O)cc2[C@@H](c2ccccc2)C1` [SCH23390], at hNOP receptor [1], the “Effect on N/OFQ-induced hyperpolarization” value is on record as “reversed the N/OFQ-evoked hyperpolarization”.

On to buprenorphine, for which, at hNOP receptor [2], the “Agonist-induced NOP receptor phosphorylation at Ser346, Ser351 and Thr362/Ser363” value is reported as “complete lack of NOP receptor phosphorylation”. Besides, the “Agonist activity in G protein signaling / GIRK channel activation” value at hNOP receptor [1] was “partial agonistic activity with a remarkably reduced maximal effect compared with N/OFQ”. For the same compound, in the test on NOP receptor [3], the “Agonist efficacy at the NOP receptor in cAMP inhibition assays” value is reported as “partial agonists”.

For the compound `CC1(N2CCC(n3c([C@@H]4CCCNC4)nc4ccccc43)CC2)CCCCCCC1` [MCOPPB], on NOP receptor [4], the “NOP receptor internalization in ventral midbrain neurons” value is recorded as “strong MCOPPB-induced NOP receptor internalization”.

As to `C=C[C@@]1(C)CC(=O)[C@]2(O)[C@@]3(C)[C@@H](O)CCC(C)(C)[C@@H]3[C@H](O)[C@H](OC(C)=O)[C@@]2(C)O1` [Forskolin, forskolin], at hNOP receptor [2], the “NOP receptor phosphorylation by second messenger kinase activators” value is given as “did not produce any detectable phosphorylation”.

For `Cc1cccc2c1CC[C@H](CN1CCC(c3c(Cl)cccc3Cl)CC1)C[C@@H]2O` [SB 612111, (−)-cis-1-methyl-7-[[4-(2,6-dichlorophenyl)piperidin-1-yl]methyl]-6,7,8,9-tetrahy dro-5H-benzocyclohepten-5-ol], the “Inhibition of N/OFQ-induced NOP receptor phosphorylation” value on hNOP receptor [2] is “completely blocked N/OFQ-induced phosphorylation”. Also, the “Block of AT-202-induced NOP receptor phosphorylation in mouse brain” value on NOP receptor [5] is on record as “could be blocked”.

These data come from publication PMC6934085 (Science signaling, 2019).
